Measured values taken from patent publication US11891405B2, “Furo[3,4-b]pyrrole-containing BTK inhibitor” (CHIA TAI TIANQING PHARMACEUTICAL GROUP CO., LTD., priority 2018, dated 2024).

Key:
[1] = Human liver microsome metabolic stability; format: in vitro ADME; details: human liver microsomes
Procedure: 3.1 Human Liver Microsome Assay
(§1) 300 μL of final incubation system: 30 μL of human liver microsomes (protein concentration: 5 mg/mL, XENOTECH, USA), 30 μL of NADPH (10 mM)+MgCl2 (5 mM), 3 μL of the substrate, i.e., the example compound (dissolved in 50% aqueous acetonitrile solution, 100 μM), and 237 μL of PBS buffer, wherein the proportion of the organic solvent (acetonitrile) was 0.5%. Each tube was added with 270 μL of a mixed solution of substrate and enzyme, and after being pre-incubated at 37° C. for 5 min, added with 30 μL of NADPH+MgCl2. Then 50 μL of the mixture was taken at 0 min, 15 min, 30 min and 60 min, and added with 300 μL of diazepam glacial acetonitrile (20 ng/mL) containing an internal standard to quench the reaction. The reaction mixture was vortexed for 5 min, and centrifuged (13,000 rpm, 4° C.) for 10 min. 100 μL of supernatant was pipetted into a sample vial, from which 1 μL of supernatant was injected and analyzed by LC-MS/MS, and the residual percentage was calculated.

[2] = biological target: T1, BTK (Y223) phosphorylation in Ramos lymphoma cells (Homo sapiens, UniProt Q06187); test: BTK (Y223) phosphorylation inhibition at cell level; format: cell-based
T1 construct: Ramos lymphoma cells in logarithmic growth phase were centrifuged; endogenous in cells; host or cells: Ramos lymphoma cells
Procedure: EXPERIMENTAL EXAMPLE 2: SCREENING FOR BTK (Y223) PHOSPHORYLATION INHIBITION ACTIVITY AT CELL LEVEL
20 μL of 30% hydrogen peroxide was added in 860 μL of double distilled water to prepare 200 mM hydrogen peroxide. PV (sodium pervanadate): 10 μL of 200 mmol/L sodium orthovanadate was reacted with 10 μL of 200 mmol/L hydrogen peroxide in 80 μL of RPMI 1640 complete medium at room temperature for 15 min, and the reaction solution was diluted with RPMI 1640 complete medium to 6 mM. It was prepared freshly prior to use. Ramos lymphoma cells in logarithmic growth phase were centrifuged at 1500 rpm for 3 min using a low-speed centrifuge, added with a proper amount of RPMI 1640 complete medium, resuspended and counted. A proper amount of corresponding culture medium was added to a proper amount of cell suspension to adjust the cell density to about 1-2×10E7 cells/mL. The cells at the above cell density were seeded in a 384-well plate at 20 μL/well, then 5 μL of compound was added to each well, and the plate was incubated for 1 h. 20 mM PV was diluted with RPMI 1640 complete medium to 6 mM (final concentration: 1 mM), added to wells at 5 μL/well according to the plate distribution, and incubated for 15-20 min. The blank group was wells seeded with cells, without compound and PV, and the control group was wells seeded with cells, without compound and with PV. 10 μL of lysis buffer (4×) containing blocking buffer was added immediately and incubated by shaking at room temperature for 30 min. After the mixture was mixed, 16 μL of lysate was transferred to another 384-well small-volume white plate. The plate was added with 4 μL of pre-mixed antibody (vol/vol) in assay buffer, covered, centrifuged to mix well, and incubated overnight at room temperature. The 665 nm/620 nm signal value was detected using a PE Envision multi-functional microplate reader, and IC50 was calculated by four-parameter fitting.

EGFR (WT) = EGFR (WT) (Homo sapiens, UniProt P00533); test: Screening for EGFR inhibitory activity; format: biochemical
Procedure: 1.2 Screening for EGFR (Epidermal Growth Factor Receptor) Inhibitory Activity
50 ng/μL EGFR (WT) stock solution was diluted with kinase buffer (50 mM HEPES, 10 mM MgCl2, 2 mM DTT, 1 mM EGTA, 0.01% Tween 20), and 6 μL of 1.67× working solution at 0.01336 ng/μL (final concentration: 0.008 ng/μL) was added to each well. Different compounds dissolved in DMSO were added to the wells using a nanoliter pipettor, resulting in the final concentration of 1000 nM to […] (4-fold gradient for 7 concentrations in total), and blank control wells (without enzyme) and negative control wells (with enzyme, plus vehicle DMSO) were set, 2 replicate wells for each well. After enzyme was reacted with the compound or vehicle for 10 min, 5× ATP at 25 μM (final concentration: 5 μM) prepared with kinase buffer was mixed with 5× substrate at 0.5 μM (final concentration: 0.1 μM, ULight-poly GT) at a ratio of 1:1, and the mixture was added to each well at 4 μL/well. After being sealed with a film, the plate was incubated at room temperature for 2 h, then 5 μL of 4×EDTA at 40 mM (final concentration: 10 mM) was added to each well. After the plate was incubated for 5 min at room temperature, 5 μL of 4× detection reagent at 8 nM (final concentration: 2 nM, Eu-anti-phospho-tyrosine antibody) was added to each well, followed by incubation at room temperature for 1 h. The plate was read using a PE Envision multi-functional microplate reader (excitation: 320 nm, emission: 665 nm), and IC50 was calculated by four-parameter fitting.

[3] = Rat liver microsome metabolic stability; format: in vitro ADME; details: rat liver microsomes
Procedure: 3.3 Rat Liver Microsome Assay
as §1, with “rat” for “human”, “remaining” for “residual”

Chain of EGFR (WT) (P00533 25-1210, species assumed): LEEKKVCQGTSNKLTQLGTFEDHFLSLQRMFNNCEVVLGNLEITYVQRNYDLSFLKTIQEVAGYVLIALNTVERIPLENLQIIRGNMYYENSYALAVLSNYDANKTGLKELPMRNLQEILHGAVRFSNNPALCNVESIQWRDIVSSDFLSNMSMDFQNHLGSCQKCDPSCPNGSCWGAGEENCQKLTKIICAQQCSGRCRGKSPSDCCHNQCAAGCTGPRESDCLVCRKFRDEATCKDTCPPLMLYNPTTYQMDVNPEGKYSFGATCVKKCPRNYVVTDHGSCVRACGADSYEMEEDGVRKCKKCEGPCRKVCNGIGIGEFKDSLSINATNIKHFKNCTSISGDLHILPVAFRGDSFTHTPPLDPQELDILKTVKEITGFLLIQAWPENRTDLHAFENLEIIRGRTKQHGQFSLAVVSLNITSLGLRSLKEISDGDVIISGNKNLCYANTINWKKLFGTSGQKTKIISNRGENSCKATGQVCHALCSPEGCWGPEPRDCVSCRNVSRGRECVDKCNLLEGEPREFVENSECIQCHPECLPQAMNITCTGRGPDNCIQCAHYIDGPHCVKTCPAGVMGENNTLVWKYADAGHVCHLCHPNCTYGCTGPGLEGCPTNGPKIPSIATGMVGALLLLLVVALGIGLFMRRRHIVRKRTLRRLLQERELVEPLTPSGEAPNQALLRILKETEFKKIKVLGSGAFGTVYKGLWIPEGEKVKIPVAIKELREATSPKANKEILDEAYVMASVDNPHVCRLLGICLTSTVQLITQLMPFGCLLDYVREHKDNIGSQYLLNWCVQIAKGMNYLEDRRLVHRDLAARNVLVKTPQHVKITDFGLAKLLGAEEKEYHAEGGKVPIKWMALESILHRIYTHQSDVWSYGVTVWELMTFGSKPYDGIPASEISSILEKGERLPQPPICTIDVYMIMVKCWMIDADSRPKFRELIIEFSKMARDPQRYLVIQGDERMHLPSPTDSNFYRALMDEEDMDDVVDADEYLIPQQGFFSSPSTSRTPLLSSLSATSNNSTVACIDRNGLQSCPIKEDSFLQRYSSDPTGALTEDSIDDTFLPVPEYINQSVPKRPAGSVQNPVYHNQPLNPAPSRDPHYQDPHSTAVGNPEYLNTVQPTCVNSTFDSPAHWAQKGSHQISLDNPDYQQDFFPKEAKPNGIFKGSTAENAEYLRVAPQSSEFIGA
T1 sequence (Q06187 whole entry): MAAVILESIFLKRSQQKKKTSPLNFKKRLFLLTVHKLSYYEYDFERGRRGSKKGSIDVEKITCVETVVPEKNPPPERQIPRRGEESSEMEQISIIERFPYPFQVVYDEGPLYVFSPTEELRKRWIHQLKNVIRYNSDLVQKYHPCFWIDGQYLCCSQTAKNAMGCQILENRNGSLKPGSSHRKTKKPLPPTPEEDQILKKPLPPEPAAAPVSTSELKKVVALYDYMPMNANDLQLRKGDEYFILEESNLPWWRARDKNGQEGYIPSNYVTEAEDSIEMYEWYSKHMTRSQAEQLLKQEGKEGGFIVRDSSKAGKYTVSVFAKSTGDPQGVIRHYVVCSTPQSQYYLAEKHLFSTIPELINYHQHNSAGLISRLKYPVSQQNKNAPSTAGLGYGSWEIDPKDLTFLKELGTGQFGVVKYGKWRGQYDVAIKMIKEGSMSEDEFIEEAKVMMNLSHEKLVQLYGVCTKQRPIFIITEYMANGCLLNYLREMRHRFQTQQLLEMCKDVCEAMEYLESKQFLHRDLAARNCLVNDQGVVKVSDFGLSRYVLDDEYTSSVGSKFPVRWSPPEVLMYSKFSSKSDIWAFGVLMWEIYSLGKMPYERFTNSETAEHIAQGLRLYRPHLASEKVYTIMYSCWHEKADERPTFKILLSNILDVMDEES

Row | Human (HLM) Remaining % (T = 60 min) [1] | IC50 [2] | IC50 (EGFR (WT)) | Rat (RLM) Remaining % (T = 60 min) [3] | SMILES
1 | 89% | 30 nM | > 1000 nM | 30% | CC#CC(=O)N1[C@@H]2COC[C@@H]2C[C@H]1c1nc(-c2ccc(C(=O)Nc3ccccn3)cc2)c2c(N)nccn12 [Compound I-1, 4-(8-amino-3-((2S,3aR,6aS)-1-(but-2-ynoyl)hexahydro-1H-furo[3,4-b]pyrrol-2-yl)imidazo [1,5-a]pyrazin-1-yl)-N-(pyridin-2-yl)benzamide]
2 | 74% | 25 nM | 107 nM | 42% | C=CC(=O)N1[C@@H]2COC[C@@H]2C[C@H]1c1nc(-c2ccc(C(=O)Nc3ccccn3)cc2)c2c(N)nccn12 [Compound I-3, 4-(3-((2S,3AR,6AS)-1-ACRYLOYLHEXAHYDRO-1H-FURO[3,4-B]PYRROL-2-YL)-8-AMINOIMIDAZO [1,5-A]PYRAZIN-1-YL)-N-(PYRIDIN-2-YL)BENZAMIDE]
3 | 15% | 66 nM | > 1000 nM | 26% | CC#CC(=O)N1[C@@H]2COC[C@@H]2C[C@H]1c1nc(-c2ccc(C(=O)Nc3cc(C(F)(F)F)ccn3)cc2F)c2c(N)nccn12 [Compound I-4, 4-(8-AMINO-3-((2S,3AR,6AS)-1-(BUT-2-YNOYL)HEXAHYDRO-1H-FURO[3,4-B]PYRROL-2-YL)IMIDAZO[1,5-A]PYRAZIN-1-YL)-3-FLUORO-N-(4-(TRIFLUOROMETHYL)PYRIDIN-2-YL)BENZAMIDE]
4 | 29.9% | 52 nM | > 1000 nM | 33.9% | Nc1nccn2c([C@@H]3C[C@H]4COC[C@H]4N3C(=O)C3CC3)nc(-c3ccc(C(=O)Nc4cc(C(F)(F)F)ccn4)cc3F)c12 [Compound I-7, 4-(8-AMINO-3-((2S,3AR,6AS)-1-(CYCLOPROPANECARBONYL)HEXAHYDRO-1H-FURO[3,4-B]PYRROL-2-YL)IMIDAZO[1,5-A]PYRAZIN-1-YL)-3-FLUORO-N-(4-(TRIFLUOROMETHYL)PYRIDIN-2-YL)BENZAMIDE]
